According to patent publication US20200140383A1, “2-(4-CHLOROPHENOXY)-N-((1 -(2-(4-CHLOROPHENOXY)ETHYNAZETIDIN-3-YL)METHYL)ACETAMIDE DERIVATIVES AND RELATED COMPOUNDS AS ATF4 INHIBITORS FOR TREATING CANCER AND OTHER DISEASES” (GlaxoSmithKline Intellectual Property Development Limited, priority 2017, published 2020):
Where “and” joins values, the source holds several entries; their conditions need not be identical. Equal values may be shown once.

Tested on: ATF4 translation (SH-SY5Y-ATF4-NanoLuc cells)
Experiment: ATF4 cell based assay (ATF4 5'-UTR NanoLuc luciferase reporter, Thapsigargin induced stress)
Settings: Thapsigargin 200-300 nM for 14-18 hours, average of two or more experimental runs, read-out: average ATF4 pathway inhibitory activity (IC50)
From the text: The ATF4 reporter assay measures the effect of Thapsigargin induced cellular stress on ATF4 expression. For this reporter assay, a stable cell line was created by transfecting SH-SY5Y cells with a plasmid containing the NanoLuc® luciferase gene fused to the 5′-UTR of ATF4, under the control of the CMV promoter. The ATF4 5′-UTR contains two open reading frames which mediate the cellular stress-dependent translation of the reporter gene. Clones stably expressing the reporter construct were isolated and selected based on the luminescence response to thapsigargin and inhibition of this signal by test compounds. Briefly, SH-SY5Y-ATF4-NanoLuc cells were challenged with Thapsigargin for 14-18 hours to determine the stress effect with or without test compounds.
Cells were propagated in growth media consisting of 90% DMEM F12 (InVitrogen #11320-033), 10% Fetal Bovine Serum (Gibco #10438-026), 5 mM Glutamax (Gibco #35050-061), 5 mM Hepes, (Gibco #15630-080), and 0.5 mg/ml Geneticin (Gibco #10131-027). Cells were prepared for the assay by removing all media from cells, washing the plated cells with phosphate buffered saline, and detached by adding a solution comprised of 10% Tryple express solution (InVitrogen12604-021) and 90% enzyme-free cell dissociation buffer HANKS base (Gibco 13150-016). The trypsin was deactivated by adding assay media comprised of 90% phenol-red free DMEM F12 (InVitrogen, 11039), 10% Fetal Bovine Serum (Gibco #10438-026), (5 mM Glutamax (Gibco #35050-061), 5 mM Hepes, (Gibco #15630-080), and 0.5 mg/ml Geneticin (Gibco #10131-027). Suspended cells were spun down at 300 g for 5 min, the supernatant was removed and the cell pellet was suspended in warm media (30-37° C.) comprised as above but without 10% Fetal Bovine Serum to a concentration of 1e6 cells/mi.
Assay plates were prepared by adding 250 nL of compound stock solution in 100% DMSO to each well, followed by dispensing 20 microliters/well cell suspension to deliver 15-20 k cell/well. Cells were incubated for 1 hour at 37° C. Then, 5 μL of 1.5 μM or 1 μM of Thapsigargin (final concentration: 200-300 nM) was added to each well of cells. Assay plates containing cells were incubated for 14-18 hours at 37° C.
The measurement of luciferase produced by the ATF4 constructs was measured as follows. Aliquots of the Nano-Glo reagent (Nano-Glo® Luciferase Assay Substrate, Promega, N113, Nano-Glo® Luciferase Assay Buffer, Promega, N112 (parts of Nano-Glo® Luciferase Assay System, N1150) were brought to room temperature, the substrate and buffer were mixed according to manufacturer's instructions. The cell plates were equilibrated to room temperature. 25 microliters/well of the mixed Nano-Glo reagent were dispensed into assay wells and pulse spun to settle contents and the plate was sealed with film. The plates were incubated at room temperature for 1 hour before detecting luminescence on an EnVision® plate reader.

Structure (SMILES) | IC50
O=C(COc1ccc(Cl)cc1)NCC1CN(C(=O)COc2ccc(Cl)cc2)C1 [Example 1, 2-(4-chlorophenoxy)-N-((1-(2-(4-chlorophenoxy)acetyl)azetidin-3-yl)methyl)acetamide] | 100 to 1000 nM
O=C(COc1ccc(Cl)cc1)NCC1CN(C(=O)CCc2ccc(Cl)cc2)C1 [Example 2, 2-(4-chlorophenoxy)-N-((1-(3-(4-chlorophenyl)propanoyl)azetidin-3-yl)methyl)acetamide] | 100 to 1000 nM
O=C(COc1ccc(Cl)cc1)NCC1CN(C(=O)C2CC2c2ccc(Cl)cc2)C1 (centres unmarked) [Example 3, 2-(4-chlorophenoxy)-N-((1-(2-(4-chlorophenyl)cyclopropane-1-carbonyl)azetidin-3-yl)methyl)acetamide] | 100 to 1000 nM
O=C(COc1ccc(Cl)cc1)NCCC1CN(C(=O)COc2ccc(Cl)cc2)C1 [Example 4, 2-(4-chlorophenoxy)-N-(2-(1-(2-(4-chlorophenoxy)acetyl)azetidin-3-yl)ethyl)acetamide] | 100 to 1000 nM
CC(C)(C)OCC(=O)N1CC(CNC(=O)COc2ccc(Cl)cc2)C1 [Example 5, N-((1-(2-(tert-butoxy)acetyl)azetidin-3-yl)methyl)-2-(4-chlorophenoxy)acetamide] | 1000 to 8000 nM
O=C(COc1ccc(Cl)cc1)NCC1CN(CCCOc2ccc(Cl)cc2)C1 [Example 6, 2-(4-chlorophenoxy)-N-((1-(3-(4-chlorophenoxy)propyl)azetidin-3-yl)methyl)acetamide] | < 100 nM
O=C(COc1ccc(Cl)cc1)NCC1(F)CN(CCOc2ccc(Cl)cc2)C1 [Example 7, 2-(4-chlorophenoxy)-N-((1-(2-(4-chlorophenoxy)ethyl)-3-fluoroazetidin-3-yl)methyl)acetamide] | 1000 to 8000 nM
O=C(COc1ccc(Cl)cc1)NCC1(F)CN(CCCOc2ccc(Cl)cc2)C1 [Example 8, 2-(4-chlorophenoxy)-N-((1-(3-(4-chlorophenoxy)propyl)-3-fluoroazetidin-3-yl)methyl)acetamide] | 100 to 1000 nM
O=C(COc1ccc(Cl)cc1)NC1CN(CCCOc2ccc(Cl)cc2)C1 [Example 9, 2-(4-chlorophenoxy)-N-(1-(3-(4-chlorophenoxy)propyl)azetidin-3-yl)acetamide] | 100 to 1000 nM and 106 nM

Other lines, results leading:

IC50 | Structure (SMILES)
< 100 nM | O=C(COc1ccc(Cl)cc1)NCC1(O)CN(CCCOc2ccc(Cl)cc2)C1 [Example 10, 2-(4-chlorophenoxy)-N-((1-(3-(4-chlorophenoxy)propyl)-3-hydroxyazetidin-3-yl)methyl)acetamide]
< 100 nM and 78 nM | O=C(COc1ccc(Cl)cc1)NCC1CN(CCOc2ccc(Cl)cc2)C1 [Example 11, 2-(4-chlorophenoxy)-N-((1-(2-(4-chlorophenoxy)ethyl)azetidin-3-yl)methyl)acetamide]
< 100 nM | O=C(COc1ccc(Cl)cc1)NCCC1CN(CCOc2ccc(Cl)cc2)C1 [Example 12, 2-(4-chlorophenoxy)-N-(2-(1-(2-(4-chlorophenoxy)ethyl)azetidin-3-yl)ethyl)acetamide]
< 100 nM | O=C(NCC1CN(CCCOc2ccc(Cl)cc2)C1)C1CCc2cc(Cl)ccc2O1 (centres unmarked) [Example 13, 6-chloro-N-((1-(3-(4-chlorophenoxy)propyl)azetidin-3-yl)methyl)chromane-2-carboxamide]
< 100 nM | O=C(COc1ccc(Cl)cc1)NCC1CN(CCCc2ccc(Cl)cc2)C1 [Example 14, 2-(4-chlorophenoxy)-N-((1-(3-(4-chlorophenyl)propyl)azetidin-3-yl)methyl)acetamide]
100 to 1000 nM | O=C(COc1ccc(Cl)cc1)NCCC1CN(CCCc2ccc(Cl)cc2)C1 [Example 15, 2-(4-chlorophenoxy)-N-(2-(1-(3-(4-chlorophenyl)propyl)azetidin-3-yl)ethyl)acetamide]
100 to 1000 nM | O=C(COc1ccc(Cl)cc1)NCC1CN(C(=O)OCCc2ccc(Cl)cc2)C1 [Example 16, 4-chlorophenethyl 3-((2-(4-chlorophenoxy)acetamido)methyl)azetidine-1-carboxylate]
< 100 nM | O=C(COc1ccc(Cl)cc1)NCC1CN(C(=O)OCCOc2ccc(Cl)cc2)C1 [Example 17, 2-(4-chlorophenoxy)ethyl 3-((2-(4-chlorophenoxy)acetamido)methyl)azetidine-1-carboxylate]
< 100 nM | O=C(COc1ccc(Cl)cc1)NCC1CN(C(=O)OCc2ccc(Cl)cc2)C1 [Example 18, 4-chlorobenzyl 3-((2-(4-chlorophenoxy)acetamido)methyl)azetidine-1-carboxylate]
1000 to 8000 nM and 1340 nM | CC(C)(C)COC(=O)N1CC(CNC(=O)COc2ccc(Cl)cc2)C1 [Example 19, neopentyl 3-((2-(4-chlorophenoxy)acetamido)methyl)azetidine-1-carboxylate]
1000 to 8000 nM | O=C(COc1ccc(Cl)cc1)NCC1CN(C(=O)NCc2ccc(Cl)cc2)C1 [Example 20, N-(4-chlorobenzyl)-3-((2-(4-chlorophenoxy)acetamido)methyl)azetidine-1-carboxamide]
100 to 1000 nM | O=C(COc1ccc(Cl)cc1)NCC1CN(C(CCOc2ccc(Cl)cc2)C(=O)O)C1 (centres unmarked) [Example 21, 4-(4-chlorophenoxy)-2-(3-((2-(4-chlorophenoxy)acetamido)methyl)azetidin-1-yl) butanoic acid]
1000 to 8000 nM | COc1ccc(N2CC(CNC(=O)COc3ccc(Cl)cc3)C2)cc1 [Example 22, 2-(4-chlorophenoxy)-N-((1-(4-methoxyphenyl)azetidin-3-yl)methyl)acetamide]
1000 to 8000 nM | O=C(COc1ccc(Cl)cc1)NCC1CN(c2cccnc2)C1 [Example 23, 2-(4-chlorophenoxy)-N-((1-(pyridin-3-yl)azetidin-3-yl)methyl)acetamide]
